The source of these data is patent US11472811B2, “Pyrazolotriazolopyrimidine derivatives as A2A receptor antagonist” (BEIGENE, LTD., priority 2018, dated 2022).

Structures are written as SMILES.

This test addresses human A2A receptor (A2AR) (Homo sapiens (Human), UniProt P29274). The test is described as follows: Luciferase reporter assay (HEK293-A2AR-luc2p/CRE/Hygro cells). Format: cell-based. The conditions noted are these: 3 nM CGS21680, 5 h incubation. The method, boiled down: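 HEK293 cells stably expressing human A2AR and a CRE-luc2P reporter were seeded in 1% FBS with 1 U/mL adenosine deaminase. After 18 h they were stimulated 5 h with 3 nM CGS21680 plus compound (0.1–10000 nM), then luciferase luminescence was read. IC50 was taken from inhibition curves, with CGS21680 alone set as 100%.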
In general terms: In a reporter assay the amount or activity of a reporter protein is the signal.

A word on the IC50: it is the concentration needed to halve the response being measured. A lower IC50 goes with higher potency.

Sequence of human A2A receptor (A2AR) (P29274 whole entry): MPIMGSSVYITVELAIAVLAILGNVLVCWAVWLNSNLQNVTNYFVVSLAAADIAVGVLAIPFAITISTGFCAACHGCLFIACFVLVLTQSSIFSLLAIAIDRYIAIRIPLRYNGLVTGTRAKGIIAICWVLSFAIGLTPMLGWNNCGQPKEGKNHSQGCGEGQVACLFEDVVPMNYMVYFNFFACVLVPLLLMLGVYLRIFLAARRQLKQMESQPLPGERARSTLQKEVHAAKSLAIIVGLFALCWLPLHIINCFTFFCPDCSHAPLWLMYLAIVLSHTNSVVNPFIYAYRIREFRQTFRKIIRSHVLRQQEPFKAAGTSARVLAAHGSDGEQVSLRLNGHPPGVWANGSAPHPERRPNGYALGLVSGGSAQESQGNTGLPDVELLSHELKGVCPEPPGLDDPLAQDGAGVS

With `CC1(O)CCC(NC(=O)[C@](C)(c2ccccc2)n2ncc3c2nc(N)n2nc(-c4ccco4)nc32)CC1` (stereo in doubt) [Example 33A, (S)-2-(5-amino-2-(furan-2-yl)-7H-pyrazolo[4,3-e][1,2,4]triazolo[1,5-c]pyrimidin-7-yl)-(trans)-N-(4-hydroxy-4-methylcyclohexyl)-2-phenylpropanamide], half-maximal inhibition (IC50) was put at 13.2 nM. With `CC(C(=O)Nc1ccncc1)(c1ccccc1)n1ncc2c1nc(N)n1nc(-c3ccco3)nc21` (stereo not shown) [Example 65, 2-(5-amino-2-(furan-2-yl)-7H-pyrazolo[4,3-e][1,2,4]triazolo[1,5-c]pyrimidin-7-yl)-2-phenyl-N-(pyridin-4-yl)propanamide], the midpoint of inhibition, the IC50, lay at 25.5 nM. The value for `CC(C(=O)NCc1ccncc1)(c1ccccc1)n1ncc2c1nc(N)n1nc(-c3ccco3)nc21` (stereo not shown) [Example 83, 2-(5-amino-2-(furan-2-yl)-7H-pyrazolo[4,3-e][1,2,4]triazolo[1,5-c]pyrimidin-7-yl)-2-phenyl-N-(pyridin-4-ylmethyl)propenamide] was 11.2 nM; that for `C[C@@](C(=O)N[C@@H]1CCC[C@@H]1O)(c1ccccc1)n1ncc2c1nc(N)n1nc(-c3ccco3)nc21` [Example 48A, (S)-2-(5-amino-2-(furan-2-yl)-7H-pyrazolo[4,3-e][1,2,4]triazolo[1,5-c]pyrimidin-7-yl)-N-((1R,2S)-2-hydroxycyclopentyl)-2-phenylpropanamide] was 12.6 nM; that for `CCOc1ccccc1CNC(=O)C(c1ccccc1)n1ncc2c1nc(N)n1nc(-c3ccco3)nc21` (stereo not shown) [Example 6, 2-(5-amino-2-(furan-2-yl)-7H-pyrazolo[4,3-e][1,2,4]triazolo[1,5-c]pyrimidin-7-yl)-N-(2-triethoxybenzyl)-2-phenylacetamide] was 0.9 nM. Next, `C[C@](C(=O)NCc1cccc(C(F)(F)F)n1)(c1ccccc1)n1ncc2c1nc(N)n1nc(-c3ccco3)nc21` [Example 144B, (R)-2-(5-amino-2-(furan-2-yl)-7H-pyrazolo[4,3-e][1,2,4]triazolo[1,5-c]pyrimidin-7-yl)-2-phenyl-N-((6-(trifluoromethyl)pyridin-2-yl)methyl)propanamide]: 2.1 nM; `CC(=O)O[C@H]1CC[C@@H](NC(=O)[C@@](C)(c2ccccc2)n2ncc3c2nc(N)n2nc(-c4ccco4)nc32)CC1` [Example 151B, (cis)-4-((R)-2-(5-amino-2-(furan-2-yl)-7H-pyrazolo[4,3-e][1,2,4]triazolo[1,5-c]pyrimidin-7-yl)-2-phenylpropanamido)cyclohexyl acetate]: 2 nM; `CC(C(=O)N[C@H]1CCCC[C@@H]1O)(c1ccccc1)n1ncc2c1nc(N)n1nc(-c3ccco3)nc21` (stereo partly drawn) [Example 57, 2-(5-amino-2-(furan-2-yl)-7H-pyrazolo[4,3-e][1,2,4]triazolo[1,5-c]pyrimidin-7-yl)-N-((1S,2S)-2-hydroxycyclohexyl)-2-phenylpropanamide]: 29 nM. Next, `CC(C(=O)NC1(CO)CC1)(c1ccccc1)n1ncc2c1nc(N)n1nc(-c3ccco3)nc21` (stereo not shown) [Example 37, 2-(5-amino-2-(furan-2-yl)-7H-pyrazolo[4,3-e][1,2,4]triazolo[1,5-c]pyrimidin-7-yl)-N-(1-(hydroxymethyl)cyclopropyl)-2-phenylpropanamide]: 500 nM. For `CC1(O)CCC(NC(=O)[C@](C)(c2ccccc2)n2ncc3c2nc(N)n2nc(-c4ccco4)nc32)CC1` (stereo in doubt) [Example 69A, (S)-2-(5-amino-2-(furan-2-yl)-7H-pyrazolo[4,3-e][1,2,4]triazolo[1,5-c]pyrimidin-7-yl)-(cis)-N-(4-hydroxy-4-methylcyclohexyl)-2-phenylpropanamide], the IC50 was 41.6 nM. The value for `C[C@](C(=O)NCCN1CCC(O)CC1)(c1ccccc1)n1ncc2c1nc(N)n1nc(-c3ccco3)nc21` [Example 148B, (R)-2-(5-amino-2-(furan-2-yl)-7H-pyrazolo[4,3-e][1,2,4]triazolo[1,5-c]pyrimidin-7-yl)-N-(2-(4-hydroxypiperidin-1-yl)ethyl)-2-phenylpropanamide] was 19.3 nM. Compound `CC(C(=O)NCc1cc(F)ccn1)(c1ccccc1)n1ncc2c1nc(N)n1nc(-c3ccco3)nc21` (stereo not shown) [Example 118, 2-(5-amino-2-(furan-2-yl)-7H-pyrazolo[4,3-e][1,2,4]triazolo[1,5-c]pyrimidin-7-yl)-N-((4-fluoropyridin-2-yl)methyl)-2-phenylpropanamide] had an IC50 of 7.2 nM.

Regarding `Cc1ccccc1C(C)(C(=O)NCC1(O)COC1)n1ncc2c1nc(N)n1nc(-c3ccco3)nc21` (stereo not shown) [Example 63, 2-(5-amino-2-(furan-2-yl)-7H-pyrazolo[4,3-e][1,2,4]triazolo[1,5-c]pyrimidin-7-yl)-N-((3-hydroxyoxetan-3-yl)methyl)-2-(o-tolyl)propanamide], it took 4.3 nM to reach half-maximal inhibition (IC50). On to `CC(C(=O)NCc1ccc2c(c1)OCO2)(c1ccccc1)n1ncc2c1nc(N)n1nc(-c3ccco3)nc21` (stereo not shown) [Example 42, 2-(5-amino-2-(furan-2-yl)-7H-pyrazolo[4,3-e][1,2,4]triazolo[1,5-c]pyrimidin-7-yl)-N-(benzo[d][1,3]dioxol-5-ylmethyl)-2-phenylpropanamide], for which the IC50 is 3.9 nM.

Consider `Nc1nc2c(cnn2C(C(=O)NCc2ccccc2)c2ccccc2)c2nc(-c3ccco3)nn12` (stereo not shown) [Example 1, 2-(5-amino-2-(furan-2-yl)-7H-pyrazolo[4,3-e][1,2,4]triazolo[1,5-c]pyrimidin-7-yl)-N-benzyl-2-phenylacetamide], for which half-maximal inhibition (IC50) required 1.4 nM.

As for `C[C@](C(=O)NCc1ncccc1F)(c1ccccc1)n1ncc2c1nc(N)n1nc(-c3ccco3)nc21` [Example 119B, (R)-2-(5-amino-2-(furan-2-yl)-7H-pyrazolo[4,3-e][1,2,4]triazolo[1,5-c]pyrimidin-7-yl)-N-((3-fluoropyridin-2-yl)methyl)-2-phenylpropanamide], the IC50 was found to be 2 nM. The value for `COc1ccc(CNC(=O)[C@@](C)(c2ccccc2)n2ncc3c2nc(N)n2nc(-c4ccco4)nc32)nc1` [Example 113B, (R)-2-(5-amino-2-(furan-2-yl)-7H-pyrazolo[4,3-e][1,2,4]triazolo[1,5-c]pyrimidin-7-yl)-N-((5-methoxypyridin-2-yl)methyl)-2-phenylpropanamide] was 0.9 nM; that for `CC1(O)CC(NC(=O)[C@@](C)(c2ccccc2)n2ncc3c2nc(N)n2nc(-c4ccco4)nc32)C1` (stereo in doubt) [Example 105B, (R)-2-(5-amino-2-(furan-2-yl)-7H-pyrazolo[4,3-e][1,2,4]triazolo[1,5-c]pyrimidin-7-yl)-(cis)-N-(3-hydroxy-3-methylcyclobutyl)-2-phenylpropanamide] was 5 nM; that for `CC(C(=O)N[C@@H]1CCCNC1)(c1ccccc1)n1ncc2c1nc(N)n1nc(-c3ccco3)nc21` (stereo partly drawn) [Example 67, 2-(5-amino-2-(furan-2-yl)-7H-pyrazolo[4,3-e][1,2,4]triazolo[1,5-c]pyrimidin-7-yl)-2-phenyl-N—((R)-piperidin-3-yl)propanamide] was 75.5 nM. The value for `Nc1nc2c(cnn2C(C(=O)N[C@H]2CC[C@@H](O)CC2)c2ccccc2)c2nc(-c3ccco3)nn12` (mixture of isomers) [Example 92, 2-(5-amino-2-(furan-2-yl)-7H-pyrazolo[4,3-e][1,2,4]triazolo[1,5-c]pyrimidin-7-yl)-(cis)-N-(4-hydroxycyclohexyl)-2-phenylacetamide] was 12.4 nM.

`COCCNC(=O)C(C)(c1ccccc1)n1ncc2c1nc(N)n1nc(-c3ccco3)nc21` (stereo not shown) [Example 39, 2-(5-amino-2-(furan-2-yl)-7H-pyrazolo[4,3-e][1,2,4]triazolo[1,5-c]pyrimidin-7-yl)-N-(2-methoxyethyl)-2-phenylpropanamide] registered an IC50 of 7.6 nM. The value for `CC(C(=O)NCC1COC1)(c1ccccc1)n1ncc2c1nc(N)n1nc(-c3ccco3)nc21` (stereo not shown) [Example 79, 2-(5-amino-2-(furan-2-yl)-7H-pyrazolo[4,3-e][1,2,4]triazolo[1,5-c]pyrimidin-7-yl)-N-(oxetan-3-ylmethyl)-2-phenylpropanamide] was 31 nM. The value for `C[C@](C(=O)N[C@@H]1CCCC[C@@H]1O)(c1ccccc1)n1ncc2c1nc(N)n1nc(-c3ccco3)nc21` [Example 58B, (R)-2-(5-amino-2-(furan-2-yl)-7H-pyrazolo[4,3-e][1,2,4]triazolo[1,5-c]pyrimidin-7-yl)-N-((1R,2S)-2-hydroxycyclohexyl)-2-phenylpropanamide] was 1.3 nM. `Nc1nc2c(cnn2C(C(=O)NC2CCCC2)c2ccccc2)c2nc(-c3ccco3)nn12` (stereo not shown) [Example 12, 2-(5-amino-2-(furan-2-yl)-7H-pyrazolo[4,3-e][1,2,4]triazolo[1,5-c]pyrimidin-7-yl)-N-cyclopentyl-2-phenylacetamide] came in with a 50% inhibitory concentration (IC50) of 10.2 nM. The value for `CC(C(=O)NCc1ccc(F)cn1)(c1ccccc1)n1ncc2c1nc(N)n1nc(-c3ccco3)nc21` (stereo not shown) [Example 117, 2-(5-amino-2-(furan-2-yl)-7H-pyrazolo[4,3-e][1,2,4]triazolo[1,5-c]pyrimidin-7-yl)-N-((5-fluoropyridin-2-yl)methyl)-2-phenylpropanamide] was 3.4 nM; that for `CC(C(=O)NCc1ccccn1)(c1ccccc1)n1ncc2c1nc(N)n1nc(-c3ccco3)nc21` (stereo not shown) [Example 66, 2-(5-amino-2-(furan-2-yl)-7H-pyrazolo[4,3-e][1,2,4]triazolo[1,5-c]pyrimidin-7-yl)-2-phenyl-N-(pyridin-2-ylmethyl)propanamide] was 6.2 nM.

Turning to `CC(C(=O)NC1CC1)(c1ccccc1)n1ncc2c1nc(N)n1nc(-c3ccco3)nc21` (stereo not shown) [Example 40, 2-(5-amino-2-(furan-2-yl)-7H-pyrazolo[4,3-e][1,2,4]triazolo[1,5-c]pyrimidin-7-yl)-N-cyclopropyl-2-phenylpropanamide], the IC50 is 14.9 nM. Next, `CNC(=O)C(c1ccccc1)n1ncc2c1nc(N)n1nc(-c3ccco3)nc21` (stereo not shown) [Example 4, 2-(5-amino-2-(furan-2-yl)-7H-pyrazolo[4,3-e][1,2,4]-triazolo[1,5-c]pyrimidin-7-yl)-N-methyl-2-phenylacetamide]: 3.8 nM.
